Data on nine compounds can be found in patent publication US20250032625A1, “HETEROBIFUNCTIONAL MOLECULES AS TEAD INHIBITORS” (Merck Patent GmbH, priority 2021, published 2025).

Like-named read-outs stand apart in the source and are kept apart here.

Assay [1] concerns the target T1, hsTEAD1 (209-426) (Homo sapiens (Human), UniProt P28347). Description: Surface Plasmon Resonance (SPR) assay. Format: binding. The note with it: Biacore 4000, 15° C., 1:1 Langmuir model, read-out: KD TEAD1 (209-426). The procedure:
The kinetic and affinity parameters of protein-exemplary compound interactions were evaluated by SPR. hsTEAD1 (209-426) was immobilized onto a CM7 (Series S) sensor chip via the standard amine coupling procedure, at 15° C. Prior to immobilization, the carboxymethylated surface of the chip was activated with 400 mM 1-ethyl-3-(3-dimethylaminopropyl)-carbodiimide and 100 mM N-hydroxysuccinimide for 10 min. hsTEAD1 (209-426) was diluted to 11 μg/mL in 10 mM Bis-Tris at pH 6.5 and immobilized on the activated surface chip for 8 and 10 min, in order to reach 6000 to 9000 response units (RU). The remaining activated carboxymethylated groups were blocked with a 7 min injection of 1 M ethanolamine pH 8.5 after which the surface chip was washed with 0.5% (w/v) sodium dodecyl sulphate and 50 mM glycine. HBS-N, which consists of 10 mM HEPES pH 7.4 and 150 mM NaCl, was used as the background buffer during immobilization. Exemplary compounds were prediluted in DMSO, diluted 1:50 in running buffer (20 mM Tris pH 7.4, 150 mM NaCl, 1 mM DTT, 5 mM MgCl2, 0.1 mM EGTA, 0.05% CHAPS) and injected at ten different concentrations using two-fold dilution series, from 100 μM to 0.2 μM. A DMSO solvent correction (1%-3%) was performed to account for variations in bulk signal and to achieve high-quality data. Interaction analysis cycles consisted of a 240 sec sample injection (30 μL/min; association phase) followed by 600 sec of buffer flow (dissociation phase).
All sensorgrams were processed by first subtracting the binding response recorded from the control surface (reference spot), followed by subtracting of the buffer blank injection from the reaction spot. All datasets were fit to a simple 1:1 Langmuir interaction model to determine the kinetic rate constants, KD. Experiments were performed on a Biacore 4000 (Cytiva, Uppsala, Sweden) at 15° C. and the interactions were evaluated using the provided Biacore 4000 evaluation software.
On the technique in general: Surface plasmon resonance follows binding to a sensor surface in real time, without labels.

Another assay deals with TEAD1 in SK-HEP1 cells (Homo sapiens (Human), UniProt P28347). Nature of the assay: TEAD degradation in SK-HEP1 cell line (immunofluorescence). The assay is classed as cell-based. An outline of the steps:
(§1)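 SK-HEP1 and NCI-H226 cells were treated in duplicate for 16 or 24 h at 37 °C with compound (10 points, 1:3, top 30 µM final). After fixation, TEAD1 was immunostained with anti-TEF1 and per-cell fluorescence quantified by high-content imaging. DC50 from curve fitting.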

Another assay deals with TEAD1 in NCI-H226 cells (Homo sapiens (Human), UniProt P28347). Description: TEAD degradation in NCI-H226 cell line (immunofluorescence). Format: cell-based. An outline of the steps: as §1
TEAD1 in NCI-H226 cells, sequence (P28347 whole entry): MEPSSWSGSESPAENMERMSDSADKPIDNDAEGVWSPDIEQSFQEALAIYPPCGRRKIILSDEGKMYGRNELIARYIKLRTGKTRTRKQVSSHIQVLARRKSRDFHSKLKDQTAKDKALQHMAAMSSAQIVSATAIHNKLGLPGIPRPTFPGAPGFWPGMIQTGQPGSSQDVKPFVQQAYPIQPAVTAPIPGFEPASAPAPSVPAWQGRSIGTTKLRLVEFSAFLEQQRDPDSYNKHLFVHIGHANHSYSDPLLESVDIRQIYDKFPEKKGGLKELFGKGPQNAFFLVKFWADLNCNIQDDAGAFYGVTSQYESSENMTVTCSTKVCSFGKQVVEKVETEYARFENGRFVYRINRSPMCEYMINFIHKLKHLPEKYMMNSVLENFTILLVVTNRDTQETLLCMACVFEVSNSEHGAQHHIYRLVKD
Another assay has as its target hsTEAD4 (217-424) (Homo sapiens (Human), UniProt Q15561). Nature of the assay: Thermal shift measurement / Differential Scanning Fluorimetry (DSF). Format: binding. The note with it: 100 uM compound, 2 hours at 4° C., triplicates; read-out: ΔTm TEAD4 217-434. The procedure:
(§2) Interaction of exemplary compounds with the various TEAD isoforms TEAD1, TEAD2, TEAD3, and TEAD4 was performed in a DSF assay. YAP-binding domains (YBD) of the four isoforms were subcloned and heterogeneously expressed in E. coli as a host. Initial purification was perfomed by using affinity tags, which got removed by overnight protease treatment. Further purification of TEAD isoforms was performed by Size-Exclusion Chromatography (SEC). Target protein containing fractions were pooled, concentrated with an Amicon (10 KDa MWCO) and quantified using the Bradford assay. Exemplary compound testing in the DSF assay for determining the shift of the TEAD isoform melting temperatures has been performed as described below: DSF was performed in MicroAmpTM EnduraPlateTM Optical 96-Well Clear Reaction Plates (Applied Biosystems, Life Technologies, California, USA) using a QuantStudio 7 Flex Real-Time PCR System (Applied Biosystems). Protein samples were briefly centrifuged before preparation. The final reaction mixture (20 μL of total volume) contained 11.8 μM of […]1 (209-426), 7.3 μM of […]2 (217-447), 7.9 μM of […]3 (216-435) or 11.7 μM of […]4 (217-424), and 2 or 4-fold of Protein Thermal ShiftTM Dye (Applied Biosystems) diluted in protein buffer-20 mM Tris pH 8.0, 150 mM NaCl (+0.5 mM TCEP for TEAD1 experiments). Prior to the addition of the dye, proteins were incubated with either 1 μL DMSO 100% (apo) or 100 uM of each exemplary compound (1 μL at 2 mM in 100% DMSO added to the […] reaction mixture) for 2 hours at 4° C. The melting curve data was recorded from 25 to 90° C. with an increment rate of 0.016° C.s^-1. Excitation and emission filters were applied for Protein Thermal ShiftTM Dye (470 nm and 520 nm, respectively) and for ROX reference dye (580 nm and 623 nm, respectively). The melting temperatures (Tm) were obtained by calculating the midpoint of each transition, using the Protein Thermal Shift SoftwareTM version 1.3. The thermal stability effect of each compound (ΔTm) was calculated by subtracting the calculated Tm in presence and absence (apo) of compound. All samples were tested in triplicates.
A general note: In DSF a fluorescence change marks the thermal transition of the protein.

The target in assay [2] is T1, hsTEAD1 (209-426). The description is as above. Format: binding. Conditions: 100 uM compound, 2 hours at 4° C., triplicates; read-out: ΔTm TEAD1 (209-426). The procedure: as §2
[3] abbreviates: 24 h incubation, read-out: DC50 SK-HEP1 24 h.
The mark [4] stands for this setting: 24 hours, ranges, read-out: DC50 SK-HEP1.
[5] abbreviates: 24 h incubation, read-out: DC50 NCI-H226 24 h.
The mark [6] stands for this setting: 24 hours, ranges, read-out: DC50 NCI-H226.

T1 sequence (P28347 209-426): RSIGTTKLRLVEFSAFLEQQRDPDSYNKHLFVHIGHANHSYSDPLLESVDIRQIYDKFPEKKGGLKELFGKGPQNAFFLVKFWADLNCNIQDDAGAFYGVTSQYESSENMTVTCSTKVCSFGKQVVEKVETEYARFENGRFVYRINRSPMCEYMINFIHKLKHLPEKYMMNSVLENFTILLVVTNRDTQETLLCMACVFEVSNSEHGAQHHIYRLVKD
TEAD1 in SK-HEP1 cells, sequence (P28347 whole entry): as the sequence (P28347 whole entry) above
hsTEAD4 (217-424), sequence (Q15561 217-434): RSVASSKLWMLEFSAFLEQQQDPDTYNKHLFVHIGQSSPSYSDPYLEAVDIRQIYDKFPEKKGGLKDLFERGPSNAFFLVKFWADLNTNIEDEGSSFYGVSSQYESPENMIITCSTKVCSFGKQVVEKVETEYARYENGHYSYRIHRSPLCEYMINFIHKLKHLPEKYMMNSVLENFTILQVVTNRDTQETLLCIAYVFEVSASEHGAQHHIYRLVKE

`Cn1cc2c3cc(C(=O)NCCOCCOCCNC(=O)CCCNc4cccc5c4CN(C4CCC(=O)NC4=O)C5=O)ccc3n(-c3ccc(C(F)(F)F)cc3)c2n1` (stereo not shown) [Compound 14, 4-{[2-(2,6-dioxopiperidin-3-yl)-1-oxo-2,3-dihydro-1H-isoindol-4-yl]amino}-N-(2-{2-[2-({2-methyl-8-[4-(trifluoromethyl)phenyl]-2H,8H-pyrazolo[3,4-b]indol-5-yl}formamido)ethoxy]ethoxy}ethyl) butanamide]: on hsTEAD1 (209-426) [1], the equilibrium dissociation constant (Kd) (commonly the free concentration of one partner at which half of the binding sites on the other are occupied at equilibrium, for simple one-to-one binding) worked out at 482 nM.

In the case of `CN1C(=O)CCC(N2C(=O)c3cccc(NC(=O)COCCOCCOCCOCCNC(=O)c4ccc5c(c4)c4cn(C)nc4n5-c4ccc(C(F)(F)F)cc4)c3C2=O)C1=O` (stereo not shown) [Compound 36, N-[2-(1-methyl-2,6-dioxopiperidin-3-yl)-1,3-dioxo-2,3-dihydro-1H-isoindol-4-yl]-14-({2-methyl-8-[4-(trifluoromethyl)phenyl]-2H,8H-pyrazolo[3,4-b]indol-5-yl}formamido)-3,6,9,12-tetraoxatetradecanamide], the Kd on hsTEAD1 (209-426) [1] was 980 nM.

With `Cn1cc2c3cc(C(=O)NCCOCCOCCNC(=O)CCCCNc4cccc5c4CN(C4CCC(=O)NC4=O)C5=O)ccc3n(-c3ccc(C(F)(F)F)cc3)c2n1` (stereo not shown) [Compound 9, 5-{[2-(2,6-dioxopiperidin-3-yl)-1-oxo-2,3-dihydro-1H-isoindol-4-yl]amino}-N-(2-{2-[2-({2-methyl-8-[4-(trifluoromethyl)phenyl]-2H,8H-pyrazolo[3,4-b]indol-5-yl}formamido)ethoxy]ethoxy}ethyl) pentanamide], the DC50 (in general, the concentration giving 50% degradation) was 2400 nM on TEAD1 in SK-HEP1 cells (setting [3]), 1000 to 3000 nM at TEAD1 in SK-HEP1 cells (setting [4]) and 30000 nM at TEAD1 in NCI-H226 cells (setting [5]). Besides, on hsTEAD1 (209-426) [1], the Kd was determined as 970 nM.

For `Cc1ncsc1-c1ccc(CNC(=O)[C@@H]2C[C@@H](O)CN2C(=O)[C@@H](NC(=O)COCCOCCOCCOCC(=O)NCCOCCOCCNC(=O)c2ccc3c(c2)c2cn(C)nc2n3-c2ccc(C(F)(F)F)cc2)C(C)(C)C)cc1` [Compound 3, N-[(2S)-1-[(2S,4R)-4-hydroxy-2-({[4-(4-methyl-1,3-thiazol-5-yl)phenyl]methyl}carbamoyl)pyrrolidin-1-yl]-3,3-dimethyl-1-oxobutan-2-yl]-N′-(2-{2-[2-({2-methyl-8-[4-(trifluoromethyl)phenyl]-2H,8H-pyrazolo[3,4-b]indol-5-yl}formamido)ethoxy]ethoxy}ethyl)-3,6,9,12-tetraoxatetradecanediamide], the DC50 at TEAD1 in NCI-H226 cells (16 h incubation, read-out: DC50 NCI-H226 16 h) worked out at 3000 nM; at TEAD1 in NCI-H226 cells (setting [5]), 10000 nM. Besides, the Kd at hsTEAD1 (209-426) [1] amounted to 320 nM. Besides, the values for the thermal shift (ΔTm) at 100 µM at hsTEAD4 (217-424) and on hsTEAD1 (209-426) [2] were 0.7 °C and 3.4 °C, respectively.

As to `Cn1cc2c3cc(C(=O)NCCOCCOCCOCCOCCNC(=O)COc4ccc5c(c4)CCCN5C(=O)CCl)ccc3n(-c3ccc(C(F)(F)F)cc3)c2n1` [Compound 31, 2-{[1-(2-chloroacetyl)-1,2,3,4-tetrahydroquinolin-6-yl]oxy}-N-[14-({2-methyl-8-[4-(trifluoromethyl)phenyl]-2H,8H-pyrazolo[3,4-b]indol-5-yl}formamido)-3,6,9,12-tetraoxatetradecan-1-yl]acetamide], the DC50 on TEAD1 in SK-HEP1 cells (setting [3]) was 3500 nM; on TEAD1 in SK-HEP1 cells (setting [4]) it was 3000 to 9000 nM; at TEAD1 in NCI-H226 cells (setting [5]), 10000 nM; on TEAD1 in NCI-H226 cells (setting [6]), 9000 to 30000 nM.

As for `Cc1ncsc1-c1ccc([C@H](C)NC(=O)[C@@H]2C[C@@H](O)CN2C(=O)[C@@H](NC(=O)CCCCCc2cn(CCCCOCCNC(=O)c3ccc4c(c3)c3cn(C)nc3n4-c3ccc(C(F)(F)F)cc3)nn2)C(C)(C)C)cc1` [Compound 82, (2S,4R)-1-[(2S)-3,3-dimethyl-2-[6-(1 {4-[2-({2-methyl-8-[4-(trifluoro-methyl)phenyl]-2H,8H-pyrazolo[3,4-b]indol-5-yl}formamido)ethoxy]butyl}-1H-1,2,3-triazol-4-yl)hexanamido]butanoyl]-4-hydroxy-N-[(1S)-1-[4-(4-methyl-1,3-thiazol-5-yl)phenyl]ethyl]pyrrolidine-2-carboxamide], the DC50 on TEAD1 in SK-HEP1 cells (setting [4]) and at TEAD1 in NCI-H226 cells (setting [6]) was 100 to 1000 nM in each case.

For `Cc1ncsc1-c1ccc(CNC(=O)C2CC(O)CN2C(=O)C(NC(=O)COCCOCCOCCOCCNC(=O)c2ccc3c(c2)c2cn(C)nc2n3-c2ccc(C(F)(F)F)cc2)C(C)(C)C)cc1` (stereo in doubt) [Compound 12, (2S,4R)-1-{(2S)-3,3-dimethyl-2-[14-({2-methyl-8-[4-(trifluoromethyl)phenyl]-2H,8H-pyrazolo[3,4-b]indol-5-yl}formamido)-3,6,9,12-tetraoxatetradecanamido]butanoyl}-4-hydroxy-N-{[4-(4-methyl-1,3-thiazol-5-yl)phenyl]methyl}pyrrolidine-2-carboxamide], the values for the DC50 at TEAD1 in SK-HEP1 cells (setting [4]) and on TEAD1 in NCI-H226 cells (setting [6]) were 100 to 1000 nM and 3000 to 9000 nM, respectively.

Turning to `Cc1ncsc1-c1ccc([C@H](C)NC(=O)[C@@H]2C[C@@H](O)CN2C(=O)[C@@H](NC(=O)CCCCCc2cnnn2CCCCCCCNC(=O)c2ccc3c(c2)c2cn(C)nc2n3-c2ccc(C(F)(F)F)cc2)C(C)(C)C)cc1` [Compound 38, (2S,4R)-1-[(2S)-3,3-dimethyl-2-(6-{1-[7-({2-methyl-8-[4-(trifluoromethyl)-phenyl]-2H,8H-pyrazolo[3,4-b]indol-5-yl}formamido)heptyl]-1H-1,2,3-triazol-5-yl}hexanamido)butanoyl]-4-hydroxy-N-[(1S)-1-[4-(4-methyl-1,3-thiazol-5-yl)phenyl]ethyl]pyrrolidine-2-carboxamide], the half-maximal degradation concentration (DC50) at TEAD1 in SK-HEP1 cells (setting [4]) and at TEAD1 in NCI-H226 cells (setting [6]) was 100 to 1000 nM in each case.

With `Cn1cc2c3cc(C(=O)NCCOCCOCCNC(=O)CCCCCCNc4cccc5c4C(=O)N(C4CCC(=O)NC4=O)C5=O)ccc3n(-c3ccc(C(F)(F)F)cc3)c2n1` (stereo not shown) [Compound 6, 7-{[2-(2,6-dioxopiperidin-3-yl)-1,3-dioxo-2,3-dihydro-1H-isoindol-4-yl]amino}-N-(2-{2-[2-({2-methyl-8-[4-(trifluoromethyl)phenyl]-2H,8H-pyrazolo[3,4-b]indol-5-yl}formamido)ethoxy]ethoxy}ethyl) heptanamide], the DC50 at TEAD1 in NCI-H226 cells (setting [6]) fell in the range of 100 to 1000 nM. Also, the dissociation constant Kd on hsTEAD1 (209-426) [1] was determined as 1400 nM. Also, the ΔTm (as a rule, the change in melting temperature against a reference sample) at 100 µM at hsTEAD4 (217-424) is 1.4 °C; at hsTEAD1 (209-426) [2] it was -1.1 °C.
